Results: ChEMBL document CHEMBL1201862, “PubChem BioAssay data set” (2004)
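Each compound was tested at five concentrations against cells in 96-well plates for 48 hours. Here, GI50 denotes the concentration required for 50% inhibition of growth.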 Active and inactive are the calls of the source. Cut-off read from the data, not from the text of the source: active = GI50 up to about 1.1 µM and inactive = higher.

Experiments:
Assay in all cases: inhibition of tumour cell growth, NCI panel, 48 h
SNB-19 = system: SNB-19
T47D = system: T47D
Malme-3M = system: Malme-3M
SF-295 = system: SF-295
SW-620 = system: SW-620
LOX IMVI = system: LOX IMVI
IGROV-1 = system: IGROV-1
CCRF-CEM = system: CCRF-CEM
K562 = system: K562
HCT-116 = system: HCT-116
EKVX = system: EKVX
HL-60 = system: HL-60
A498 = system: A498
OVCAR-8 = system: OVCAR-8
OVCAR-5 = system: OVCAR-5
SNB-75 = system: SNB-75
HT-29 = system: HT-29
SN12C = system: SN12C
SK-MEL-2 = system: SK-MEL-2
KM12 = system: KM12
M14 = system: M14
U-251 = system: U-251
UACC-257 = system: UACC-257
MDA-MB-231 = system: MDA-MB-231
HCT-15 = system: HCT-15
RPMI-8226 = system: RPMI-8226
MOLT-4 = system: MOLT-4
MDA-MB-435 = system: MDA-MB-435
CAKI-1 = system: CAKI-1
NCI/ADR-RES = system: NCI/ADR-RES
UACC-62 = system: UACC-62
SK-MEL-28 = system: SK-MEL-28
NCI-H23 = system: NCI-H23
BT-549 = system: BT-549
A549 = system: A549
OVCAR-4 = system: OVCAR-4
PC-3 = system: PC-3
OVCAR-3 = system: OVCAR-3
RXF 393 = system: RXF 393
SR = system: SR
786-0 = system: 786-0
Hs-578T = system: Hs-578T
SK-OV-3 = system: SK-OV-3
COLO 205 = system: COLO 205
UO-31 = system: UO-31
NCI-H226 = system: NCI-H226
HOP-92 = system: HOP-92
HCC 2998 = system: HCC 2998
HOP-62 = system: HOP-62
MDA-N = system: MDA-N
SF-268 = system: SF-268
ACHN = system: ACHN
MCF7 = system: MCF7
NCI-H460 = system: NCI-H460
TK-10 = system: TK-10
DU-145 = system: DU-145
SK-MEL-5 = system: SK-MEL-5
NCI-H522 = system: NCI-H522
SF-539 = system: SF-539

Measured: GI50

CN1C(=O)N/C(=C\c2ccc(S(=O)(=O)N/N=C\C(O)C(O)C(O)CO)cc2)C1=O (centres undefined)
> 100 µM: HCT-15
inactive: SNB-19 > 100 µM | T47D > 100 µM | Malme-3M > 100 µM | SF-295 > 100 µM | SW-620 > 100 µM | LOX IMVI > 100 µM | IGROV-1 > 100 µM | CCRF-CEM > 100 µM | K562 > 100 µM | HCT-116 > 100 µM | EKVX > 100 µM | HL-60 > 100 µM | A498 > 100 µM | OVCAR-8 > 100 µM | OVCAR-5 > 100 µM | SNB-75 > 100 µM | HT-29 > 100 µM | SN12C > 100 µM | SK-MEL-2 > 100 µM | KM12 > 100 µM | M14 > 100 µM | U-251 > 100 µM | UACC-257 > 100 µM | MDA-MB-231 > 100 µM | RPMI-8226 > 100 µM | MOLT-4 > 100 µM | MDA-MB-435 > 100 µM | CAKI-1 > 100 µM | NCI/ADR-RES > 100 µM | UACC-62 > 100 µM | SK-MEL-28 > 100 µM | NCI-H23 > 100 µM | BT-549 > 100 µM | A549 > 100 µM | OVCAR-4 > 100 µM | PC-3 > 100 µM | OVCAR-3 > 100 µM | RXF 393 > 100 µM | SR > 100 µM | 786-0 > 100 µM | Hs-578T > 100 µM | SK-OV-3 > 100 µM | COLO 205 > 100 µM | UO-31 > 100 µM | NCI-H226 > 10 µM | HOP-92 > 100 µM | HCC 2998 > 100 µM | HOP-62 > 100 µM | MDA-N > 100 µM | SF-268 > 100 µM | ACHN > 100 µM | MCF7 > 100 µM | NCI-H460 > 100 µM | TK-10 > 100 µM | DU-145 > 100 µM | SK-MEL-5 > 100 µM

COC(=O)C(=O)c1c2ccccc2n2ccc3c4ccccc4[nH]c3c12
active: EKVX 0.406 µM
inactive: SNB-19 > 10 µM | T47D > 10 µM | Malme-3M > 10 µM | SF-295 > 10 µM | SW-620 > 10 µM | LOX IMVI > 10 µM | IGROV-1 > 10 µM | CCRF-CEM > 10 µM | K562 > 10 µM | HCT-116 > 10 µM | HL-60 > 10 µM | OVCAR-8 > 10 µM | OVCAR-5 > 10 µM | SNB-75 > 10 µM | HT-29 > 10 µM | SN12C > 10 µM | SK-MEL-2 > 10 µM | KM12 > 10 µM | M14 > 10 µM | U-251 > 10 µM | UACC-257 > 10 µM | MDA-MB-231 9.18 µM | RPMI-8226 > 10 µM | MOLT-4 > 10 µM | MDA-MB-435 > 10 µM | CAKI-1 > 10 µM | NCI/ADR-RES > 10 µM | UACC-62 > 10 µM | NCI-H23 > 10 µM | BT-549 > 10 µM | A549 > 10 µM | OVCAR-4 > 10 µM | PC-3 > 10 µM | OVCAR-3 > 10 µM | RXF 393 > 10 µM | SR > 10 µM | 786-0 > 10 µM | Hs-578T 3.07 µM | NCI-H522 > 10 µM | SF-539 3.27 µM | SK-OV-3 > 10 µM | COLO 205 > 10 µM | UO-31 > 10 µM | NCI-H226 > 10 µM | HOP-92 > 10 µM | HCC 2998 > 10 µM | HOP-62 > 10 µM | MDA-N > 10 µM | SF-268 > 10 µM | ACHN > 10 µM | MCF7 > 10 µM | NCI-H460 > 10 µM | TK-10 > 10 µM | DU-145 > 10 µM | SK-MEL-5 > 10 µM
> 10 µM: HCT-15
